Converted amounts (≈) assume the structure as drawn.
Columns and labels:
[1] = Oral bioavailability in rat at 20 mg/kg; assay type: ADME, organism-based; settings: in vivo
[2] = Cmax in rat at 20 mg/kg, po or 2 mg/kg, iv; assay type: ADME, organism-based; parameters: dose 20 mg/kg, route po; settings: in vivo
[3] = target: Epidermal growth factor receptor (Homo sapiens, UniProt P00533); experiment: Inhibition of EGFR (unknown origin) using peptide substrate in presence of ATP by caliper electrophoresis method
[4] = Permeability across basolateral to apical membrane in human Caco-2 cells; assay type: ADME, cell-based; settings: read-out: permeability
[5] = target: Receptor tyrosine-protein kinase erbB-4 (Homo sapiens, UniProt Q15303); experiment: Inhibition of ERBB4 (unknown origin) using peptide substrate in presence of ATP by caliper electrophoresis method
[6] = AUC in rat at 20 mg/kg, po or 2 mg/kg, iv; assay type: ADME, organism-based; parameters: dose 20 mg/kg, route po; settings: in vivo
[7] = target: T1, Tyrosine-protein kinase ITK/TSK (Homo sapiens, UniProt Q08881); experiment: Inhibition of ITK (unknown origin) using peptide substrate in presence of ATP by caliper electrophoresis method
T1 sequence (Q08881 whole entry): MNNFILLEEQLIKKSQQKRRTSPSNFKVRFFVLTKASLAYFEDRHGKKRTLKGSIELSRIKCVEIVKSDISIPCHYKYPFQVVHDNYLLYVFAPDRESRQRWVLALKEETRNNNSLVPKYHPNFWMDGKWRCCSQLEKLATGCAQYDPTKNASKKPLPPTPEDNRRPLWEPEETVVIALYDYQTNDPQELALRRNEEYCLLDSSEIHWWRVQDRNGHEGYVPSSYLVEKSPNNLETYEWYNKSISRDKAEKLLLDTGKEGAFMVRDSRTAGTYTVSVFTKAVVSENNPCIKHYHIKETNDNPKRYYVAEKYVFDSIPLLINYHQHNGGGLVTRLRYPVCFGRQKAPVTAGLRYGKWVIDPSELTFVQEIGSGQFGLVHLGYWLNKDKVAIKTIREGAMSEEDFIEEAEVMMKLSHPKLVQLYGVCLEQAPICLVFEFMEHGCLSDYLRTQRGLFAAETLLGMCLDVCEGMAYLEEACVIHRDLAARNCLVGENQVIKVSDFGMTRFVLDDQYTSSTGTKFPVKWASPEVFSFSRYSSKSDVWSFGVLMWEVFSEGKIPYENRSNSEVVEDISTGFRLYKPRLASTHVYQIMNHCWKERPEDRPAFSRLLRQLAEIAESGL

[8] = Solubility of compound in PBS at pH 7 by LCMS/MS analysis; assay type: physicochemical
[9] = target: T2, Tyrosine-protein kinase JAK3 (Homo sapiens, UniProt P52333); experiment: Inhibition of JAK3 (unknown origin) using peptide substrate in presence of ATP by caliper electrophoresis method
T2 sequence (P52333 whole entry): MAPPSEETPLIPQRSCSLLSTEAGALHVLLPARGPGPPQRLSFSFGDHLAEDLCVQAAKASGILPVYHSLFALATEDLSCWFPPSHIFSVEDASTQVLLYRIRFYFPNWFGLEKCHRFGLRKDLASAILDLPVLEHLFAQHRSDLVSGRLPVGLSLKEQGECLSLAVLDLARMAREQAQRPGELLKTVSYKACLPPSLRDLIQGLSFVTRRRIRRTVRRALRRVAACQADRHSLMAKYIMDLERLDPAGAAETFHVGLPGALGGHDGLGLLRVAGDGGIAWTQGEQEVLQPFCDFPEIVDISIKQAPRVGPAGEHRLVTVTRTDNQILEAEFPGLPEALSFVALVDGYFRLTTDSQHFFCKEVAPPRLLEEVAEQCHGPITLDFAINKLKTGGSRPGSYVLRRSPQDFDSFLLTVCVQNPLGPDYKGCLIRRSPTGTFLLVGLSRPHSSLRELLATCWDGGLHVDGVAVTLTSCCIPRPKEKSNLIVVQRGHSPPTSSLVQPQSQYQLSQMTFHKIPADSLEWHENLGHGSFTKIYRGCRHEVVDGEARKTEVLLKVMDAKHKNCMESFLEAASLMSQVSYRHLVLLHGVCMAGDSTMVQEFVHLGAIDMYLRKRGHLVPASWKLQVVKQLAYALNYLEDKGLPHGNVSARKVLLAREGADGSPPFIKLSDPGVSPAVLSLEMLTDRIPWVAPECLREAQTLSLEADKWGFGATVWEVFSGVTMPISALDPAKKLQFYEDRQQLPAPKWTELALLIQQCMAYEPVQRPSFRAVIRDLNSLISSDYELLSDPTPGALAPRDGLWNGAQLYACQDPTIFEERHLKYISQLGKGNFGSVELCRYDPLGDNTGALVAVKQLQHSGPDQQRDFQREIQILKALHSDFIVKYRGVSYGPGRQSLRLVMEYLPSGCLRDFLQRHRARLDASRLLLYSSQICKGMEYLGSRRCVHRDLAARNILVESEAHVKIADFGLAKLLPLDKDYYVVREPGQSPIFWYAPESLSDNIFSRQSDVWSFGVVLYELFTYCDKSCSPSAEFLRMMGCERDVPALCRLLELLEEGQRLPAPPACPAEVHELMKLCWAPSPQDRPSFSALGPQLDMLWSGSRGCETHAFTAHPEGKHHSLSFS

[10] = target: T3, Tyrosine-protein kinase Tec (Homo sapiens, UniProt P42680); experiment: Inhibition of TEC (unknown origin) using peptide substrate in presence of ATP by caliper electrophoresis method
T3 sequence (P42680 whole entry): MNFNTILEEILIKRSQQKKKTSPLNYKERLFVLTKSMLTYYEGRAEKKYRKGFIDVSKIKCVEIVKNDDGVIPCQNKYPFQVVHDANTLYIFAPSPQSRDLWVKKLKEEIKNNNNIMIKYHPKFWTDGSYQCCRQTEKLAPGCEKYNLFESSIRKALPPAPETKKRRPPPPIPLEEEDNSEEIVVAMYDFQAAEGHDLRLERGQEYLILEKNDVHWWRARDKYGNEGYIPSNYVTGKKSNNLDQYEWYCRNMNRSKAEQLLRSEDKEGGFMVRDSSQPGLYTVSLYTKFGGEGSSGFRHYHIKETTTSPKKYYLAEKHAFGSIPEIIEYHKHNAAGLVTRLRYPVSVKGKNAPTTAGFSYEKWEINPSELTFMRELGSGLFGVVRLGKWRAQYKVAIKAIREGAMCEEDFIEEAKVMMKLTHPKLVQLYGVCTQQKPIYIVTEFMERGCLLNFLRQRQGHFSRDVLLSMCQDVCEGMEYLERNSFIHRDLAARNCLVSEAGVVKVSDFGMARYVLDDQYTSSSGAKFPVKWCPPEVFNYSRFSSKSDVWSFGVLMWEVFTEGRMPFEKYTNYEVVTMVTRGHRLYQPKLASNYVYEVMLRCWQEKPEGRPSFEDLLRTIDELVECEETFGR

[11] = Clearance in human liver S9 fraction assessed as measuring per mg protein by LCMS/MS analysis; assay type: ADME, subcellular; settings: read-out: CLH
[12] = Inhibition of anti-IgM-stimulated CD20+ B cell activation in human whole blood assessed as measuring CD69 expression level pretreated for 1 hr followed by anti-IgM stimulation measured after 18 hrs by flow cytometry
[13] = Permeability across apical to basolateral membrane in human Caco-2 cells; assay type: ADME, cell-based; settings: read-out: permeability

Chain of Epidermal growth factor receptor (P00533 whole entry): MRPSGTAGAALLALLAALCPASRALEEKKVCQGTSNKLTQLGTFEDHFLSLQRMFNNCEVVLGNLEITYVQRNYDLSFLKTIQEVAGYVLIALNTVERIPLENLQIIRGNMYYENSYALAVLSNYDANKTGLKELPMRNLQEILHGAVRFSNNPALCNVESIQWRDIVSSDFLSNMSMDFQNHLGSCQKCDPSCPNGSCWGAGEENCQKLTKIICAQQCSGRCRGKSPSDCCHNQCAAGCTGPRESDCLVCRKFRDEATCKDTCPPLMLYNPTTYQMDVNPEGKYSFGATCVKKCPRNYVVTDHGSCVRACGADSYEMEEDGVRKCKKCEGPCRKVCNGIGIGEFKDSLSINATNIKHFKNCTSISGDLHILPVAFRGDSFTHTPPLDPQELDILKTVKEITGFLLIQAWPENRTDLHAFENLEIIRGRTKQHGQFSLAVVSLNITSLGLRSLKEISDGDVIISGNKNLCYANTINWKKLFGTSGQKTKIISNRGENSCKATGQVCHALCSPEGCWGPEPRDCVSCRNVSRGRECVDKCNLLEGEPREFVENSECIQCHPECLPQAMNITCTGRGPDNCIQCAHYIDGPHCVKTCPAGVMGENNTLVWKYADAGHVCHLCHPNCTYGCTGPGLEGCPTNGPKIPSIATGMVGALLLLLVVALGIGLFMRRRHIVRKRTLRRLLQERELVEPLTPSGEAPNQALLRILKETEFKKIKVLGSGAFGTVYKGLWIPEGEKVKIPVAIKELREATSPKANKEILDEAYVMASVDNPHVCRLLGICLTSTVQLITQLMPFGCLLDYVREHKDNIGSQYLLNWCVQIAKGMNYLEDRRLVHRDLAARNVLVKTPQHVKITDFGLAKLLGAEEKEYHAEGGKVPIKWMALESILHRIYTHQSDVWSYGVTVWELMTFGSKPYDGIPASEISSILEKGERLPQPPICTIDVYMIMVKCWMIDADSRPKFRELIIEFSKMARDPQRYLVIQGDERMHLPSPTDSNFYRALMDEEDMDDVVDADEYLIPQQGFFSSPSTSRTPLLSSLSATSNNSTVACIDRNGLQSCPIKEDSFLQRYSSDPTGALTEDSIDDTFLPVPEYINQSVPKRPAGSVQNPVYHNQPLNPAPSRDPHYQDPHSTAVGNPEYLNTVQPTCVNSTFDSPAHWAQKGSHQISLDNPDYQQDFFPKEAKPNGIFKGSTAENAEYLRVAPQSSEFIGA
Chain of Receptor tyrosine-protein kinase erbB-4 (Q15303 whole entry): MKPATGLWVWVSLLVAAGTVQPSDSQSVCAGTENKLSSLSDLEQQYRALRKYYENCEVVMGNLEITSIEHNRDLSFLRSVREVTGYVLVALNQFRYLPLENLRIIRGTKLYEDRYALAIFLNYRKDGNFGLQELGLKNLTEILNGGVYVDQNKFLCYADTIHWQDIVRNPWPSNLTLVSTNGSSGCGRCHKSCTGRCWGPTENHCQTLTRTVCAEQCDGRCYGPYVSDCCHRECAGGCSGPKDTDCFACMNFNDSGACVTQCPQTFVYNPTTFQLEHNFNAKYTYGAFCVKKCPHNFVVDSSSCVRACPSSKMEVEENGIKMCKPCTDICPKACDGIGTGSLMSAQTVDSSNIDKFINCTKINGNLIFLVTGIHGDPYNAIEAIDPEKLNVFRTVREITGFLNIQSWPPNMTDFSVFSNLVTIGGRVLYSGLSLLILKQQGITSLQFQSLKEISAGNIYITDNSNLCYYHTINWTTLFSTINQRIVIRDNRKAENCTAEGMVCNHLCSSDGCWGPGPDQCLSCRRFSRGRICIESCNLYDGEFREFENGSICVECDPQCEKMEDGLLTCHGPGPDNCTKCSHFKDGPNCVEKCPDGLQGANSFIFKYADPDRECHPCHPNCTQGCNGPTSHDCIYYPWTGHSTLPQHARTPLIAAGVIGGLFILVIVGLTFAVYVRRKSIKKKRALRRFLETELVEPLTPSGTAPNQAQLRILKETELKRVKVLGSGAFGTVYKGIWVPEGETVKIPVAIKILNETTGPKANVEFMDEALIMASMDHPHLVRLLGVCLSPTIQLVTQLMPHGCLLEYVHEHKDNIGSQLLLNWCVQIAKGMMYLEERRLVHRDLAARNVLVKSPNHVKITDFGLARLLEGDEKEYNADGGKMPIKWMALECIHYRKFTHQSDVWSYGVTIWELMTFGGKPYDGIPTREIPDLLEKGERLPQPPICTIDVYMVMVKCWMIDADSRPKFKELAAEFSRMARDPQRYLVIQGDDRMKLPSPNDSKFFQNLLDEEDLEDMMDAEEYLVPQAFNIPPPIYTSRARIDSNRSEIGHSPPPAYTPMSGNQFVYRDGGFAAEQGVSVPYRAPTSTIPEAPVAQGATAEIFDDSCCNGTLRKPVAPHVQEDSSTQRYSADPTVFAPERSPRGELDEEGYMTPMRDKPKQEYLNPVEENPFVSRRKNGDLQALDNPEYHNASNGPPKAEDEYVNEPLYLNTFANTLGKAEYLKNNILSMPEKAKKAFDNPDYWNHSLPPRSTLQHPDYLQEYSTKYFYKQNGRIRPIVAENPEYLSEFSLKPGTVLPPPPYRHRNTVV

| Structure (SMILES) | bioavailability [1] [%] | Cmax [2] [ng/mL] | IC50 [3] [nM] | Papp B→A [4] [×10⁻⁶ cm/s] | IC50 [5] [nM] | AUC ([6]; read-out: AUC) [ng·h/mL] | IC50 [7] [nM] | solubility [8] [µM] | IC50 [9] [nM] | IC50 [10] [nM] | microsomal CLint [11] [µL/min/mg] | IC50 [12] [nM] | Papp A→B [13] [×10⁻⁶ cm/s] | F ([1]; po, 20 mg/kg) [%] | AUC [6] [ng·h/mL] |
| --- | --- | --- | --- | --- | --- | --- | --- | --- | --- | --- | --- | --- | --- | --- | --- |
| CN1CCN(C(C)(C)/C=C(\C#N)C(=O)N2CCC[C@@H](n3nc(-c4ccc(Oc5ccccc5)cc4F)c4c(N)ncnc43)C2)CC1 | 20.2 | 96.5 | 980 | 13.5 | 41 | 568 | 110 | 315 (≈ 196 µg/mL) | > 5000 | 0.5 | 30 | 117 | 1 |  |  |
| CC(C)(/C=C(/C#N)C(=O)N1CCC[C@@H]1Cn1nc(-c2ccc(Oc3ccccc3)cc2F)c2c(N)ncnc21)N1CCOCC1 | 17.3 | 406 | 3000 | 16.5 | 177 | 478 | > 5000 | 215 (≈ 131 µg/mL) | > 5000 | 4.5 | 152 | 149 | 6.8 |  |  |
| CC(C)(C)/C=C(\C#N)C(=O)N1CCC[C@@H](n2nc(-c3ccc(Oc4ccccc4)cc3F)c3c(N)ncnc32)C1 [ATUZABRUTINIB] |  | 326 | 368 | 0.6 | 22 |  | 303 | 2.1 (≈ 1.13 µg/mL) | > 5000 | 1.9 | 77 | 216 | 0.5 | 21.1 | 1071 |

Reference: ChEMBL document CHEMBL5104103 (J Med Chem, 2022)
